{"source": "patent US20180250321A1", "about": "“COMPOSITIONS AND METHODS FOR RESTORING THE IMMUNE SYSTEM” (ORPHEUS THERAPEUTICS, INC., priority 2017, published 2018)", "key": {"NKT cells [1]": {"tested_on": "NKT cells", "assay": "IFNγ production in mice injected with glycolipid in the presence or absence of GD3 (FIG. 18)", "format": "in vivo, wild-type C57BL/6 mice", "details": "C57BL/6 mice", "procedure": "OT-0010 is effective at restoring NKT cell function when wild-type C57BL/6 mice were injected intravenously with either αGalCer (KRN7000) or OT-0010 in the presence or absence of GD3.\nIn addition, the glycolipids of the present invention are able to fully restore IFN-γ levels, and cause a restoration of NKT cells to a Th-1 response profile (FIG. 18). […] When α-GalCer is administered at a dosage of 3 μgm, only 50% NKT cell function is restored (FIG. 25). While not wishing to be bound by theory, the reason why the glycolipids of the present invention are able to restore NKT cells to a Th-1 response profile is because these glycolipids bind more strongly to CD1d. From a thermodynamic perspective, it is impossible for GD3 to displace these glycolipids from CD1d. […] Again, while not wishing to be bound by theory, it is believed that the glycolipids of the present invention bind more strongly to CD1d due to the incorporation of the -phenyl ring to the distal end of the aliphatic carbon chain attached to the amide group connected to the C1 glycoside linkage of the galactose sugar moiety. The terminal fluorine, —OMe, or —CF3 further enhance the binding of the glycolipids of the present invention to CD1d. The results disclosed in FIG. 18 are unexpected."}, "NKT cells [2]": {"tested_on": "NKT cells", "details": "cited from earlier work"}}, "data": [{"compound": "CCCCCCCCCCCCCCCCCCCCCCCCCC(=O)N[C@@H](CO[C@H]1O[C@H](CO)[C@H](O)[C@H](O)[C@H]1O)[C@H](O)[C@H](O)CCCCCCCCCCCCCC", "note": "[α-GalCer]", "values": [{"measurement": "IFNγ production", "setting": "NKT cells [1]; glycolipid + GD3, intravenous", "value": "Inhibition of IFNγ production"}, {"measurement": "restoration of IFN-γ levels", "setting": "NKT cells [2]; FIG. 25, in the presence of GD3", "value": "does not restore IFN-γ levels"}, {"measurement": "NKT cell function restored", "setting": "NKT cells [2]; dosage of 3 μgm, in the presence of GD3, FIG. 25", "value": 50, "unit": "%"}]}, {"compound": "Ganglioside D3 [GD3]", "values": [{"measurement": "IFNγ production", "setting": "NKT cells [1]; substance alone, intravenous", "value": "Inhibition of IFNγ production"}, {"measurement": "α-GalCer-induced cytokine production in vivo (IFN-γ, IL-4, IL-12)", "setting": "NKT cells [2]; 1 μg α-GalCer intravenously with or without GD3, serum ELISA", "value": "inhibits"}, {"measurement": "IFN-γ production by NKT cells", "setting": "NKT cells [2]; FIG. 25, effect of GD3", "value": "dramatic decrease in IFN-γ production"}]}]}
